Assay results reported in patent US9771372B2, “Compounds useful as S100-inhibitors” (Active Biotech AB, priority 2014, dated 2017).
pIC50: −log10 of the molar value.

Biological target: T1, interaction between biotinylated human S100A9 and human RAGE-Fc (Homo sapiens, UniProt P06702)
T1 construct: made in house; host or cells: E. coli BL21(DE3)/pET1120 (pLR757)
T1 sequence (P06702 1-114): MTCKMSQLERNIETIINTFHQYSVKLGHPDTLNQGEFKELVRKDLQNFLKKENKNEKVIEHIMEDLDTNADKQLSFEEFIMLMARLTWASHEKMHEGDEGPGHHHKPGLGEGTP
Assay: AlphaScreen inhibition assay, Biot-hS100A9:hRAGE-Fc (S100A9-RAGE inhibition assay)
Type: binding
Conditions: biot-hS100A9 and rhRAGE-Fc, Ca2+ and Zn2+ in buffer
Description: FIG. 1 is a schematic representation of an assay of the inhibition of the interaction between biotinylated human S100A9 and human RAGE-Fc using a small molecule S100A9 binder.
Inhibition Assay, Biot-hS100A9:hRAGE-Fc
The AlphaScreen (Amplified Luminescent Proximity Homogeneous Assay) contains two types of beads, Alpha Donor beads and Acceptor beads (PerkinElmer). Upon laser excitation at 680 nm a photosensitizer in the Donor bead converts ambient oxygen to a more excited singlet state. The singlet oxygen molecule diffuses (maximum 200 nm) to react with a thioxene derivative in the Acceptor bead and generates a chemiluminescence reaction. Fluorophores in the Acceptor bead subsequently emit light at 520-620 nm which can be detected in the EnVision® Multilabel plate Reader (PerkinElmer). The beads are light sensitive and all work with the beads is performed under subdued light conditions or using green filters on light sources (Roscolux Chroma Green #389, Rosco).
In the AlphaScreen Inhibition Assay described here, protein A (Staphylococcus aureus) conjugated Acceptor beads are used together with streptavidin coated Donor beads (Perkin Elmer 6760617M). The Acceptor beads are pre-incubated with Fc-tagged recombinant human RAGE (rhRAGE-Fc) allowing binding of the rhRAGE-Fc to protein A on the beads. Biotinylated human S100A9 (biot-hS100A9) is pre-incubated with the low molecular test compounds. The pre-mixes are then added to the wells of a micro-plate and incubated allowing interaction between biot-hS100A9 and rhRAGE-Fc. Subsequent addition of streptavidin coated Donor beads causes binding of the streptavidin to the biotinylated hS100A9. After an additional incubation the signal is measured.
Without inhibitory compounds, the interaction of biot-hS100A9 to rhRAGE-Fc will bring the Acceptor and Donor beads in close proximity thus generating a high signal. With an inhibitor present the complex will not form resulting in a decreased signal.
The AlphaScreen assay method is used for screening of the inhibitory effect of different compound samples at fixed concentrations or for IC50 determination by varying the compound concentrations. Samples of test compounds and references are prepared from solutions in DMSO. Relevant reference inhibitors and DMSO are used as controls for defined inhibition and non-inhibition, respectively in the assay. The percent inhibition in assay for test compounds and references are calculated by comparing their obtained assay signals with the signal values for the control with only DMSO (no compound).
Assay concentration of biotinylated hS100A9 and rhRAGE-Fc are batch dependent, and are determined and defined by separate cross-titration experiments using this AlphaScreen inhibition method to verify the optimal setup regarding signal strength and achievement of a defined inhibition with relevant reference compounds. The Final assay concentrations of Acceptor and Donor beads are 20 μg/mL.
Assay buffer is prepared by adding CaCl2 and ZnCl2 to HBS-P and is used freshly prepared in the experiment.
Biotin-hS100A9 solution for the experiment is prepared by dilution of appropriate amount of stock solution biot-hS100A9 in assay buffer (with CaCl2 and ZnCl2) and incubation in room temperature for 30 minutes.
rhRAGE-Fc solution for the experiment is prepared by dilution appropriate amount of rhRAGE-Fc stock in assay buffer.
Protein A Acceptor beads are diluted in assay buffer and are added to an equal volume of the prepared diluted rhRAGE-Fc solution. The beads are light sensitive. The vial is covered with aluminum foil and incubated at room temperature in the dark until biot-hS100A9+compound incubation is finished (see below).
Streptavidin-coated Donor beads are diluted in assay buffer. The beads are very light sensitive. The vial is covered with aluminum foil and incubated at room temperature in the dark until use (see below).
Samples of test compounds, appropriate references and DMSO control are diluted in assay buffer. […]

| pIC50 | Compound |
| --- | --- |
| 5.70 | O=C(NC1(C(F)(F)F)C(=O)Nc2nc3cc(Cl)c(Cl)cc3n21)[C@@H]1CCCN1 (mixture of isomers) [Example 41, (2S)—N-[10,11-dichloro-4-oxo-3-(trifluoromethyl)-2,5,7-triaza-tricyclo[6.4.0.0^2,6]dodeca-1(12),6,8,10-tetraen-3-yl]pyrrolidine-2-carboxamide] |
| 5.70 | O=C(NC1(C(F)(F)F)C(=O)Nc2nc3cc(Cl)c(Cl)cc3n21)C1CCNC1 (mixture of isomers) [Example 42, N-[10,11-dichloro-4-oxo-3-(trifluoromethyl)-2,5,7-triazatricyclo-[6.4.0.0^2,6]dodeca-1(12),6,8,10-tetraen-3-yl]pyrrolidine-3-carboxamide] |
| 5.84 | COC[C@H](C)Nc1cccc(C(=O)NC2(C(F)(F)F)C(=O)Nc3nc4c(C#N)c(Cl)ccc4n32)n1 (mixture of isomers) [Example 140, N-[10-chloro-9-cyano-4-oxo-3-(trifluoromethyl)-2,5,7-triaza-tricyclo[6.4.0.0^2,6]dodeca-1(8),6,9,11-tetraen-3-yl]-6-{[(2S)-1-methoxypropan-2-yl]amino}-pyridine-2-carboxamide] |
| 5.51 | Cc1cc2nc3n(c2cc1C)C(NC(=O)[C@@H](C)CC1CCCC1)(C(F)(F)F)C(=O)N3 (mixture of isomers) [Example 145, (2S)-3-cyclopentyl-N-[10,11-dimethyl-4-oxo-3-(trifluoromethyl)-2,5,7-triazatricyclo[6.4.0.0^2,6]dodeca-1(8),6,9,11-tetraen-3-yl]-2-methylpropanamide] |
| 5.64 | O=C(NC1(C(F)(F)F)C(=O)Nc2nc3cc(Cl)c(Cl)cc3n21)C1CCN(C(=O)C2CCCC2)C1 (racemic) [Example 50, (rac).1-cyclopentanecarbonyl-N-[10,11-dichloro-4-oxo-3-(trifluoromethyl)-2,5,7-triaza-tricyclo[6.4.0.0^2,6]dodeca-1(12),6,8,10-tetraen-3-yl]pyrrolidine-3-carboxamide] |
| 5.23 | Cc1cc2nc3n(c2cc1C)C(NC(=O)[C@@H]1CCCN1S(C)(=O)=O)(C(F)(F)F)C(=O)N3 (single isomer, unassigned) [Example 89] |
| 5.19 | Cc1cc2nc3n(c2cc1C)C(NC(=O)[C@@H](C)c1ccccc1)(C(F)(F)F)C(=O)N3 (single isomer, unassigned) [Example 144] |
| 5.27 | Cc1cc2nc3n(c2cc1C)C(NC(=O)[C@@H](O)c1ccccc1)(C(F)(F)F)C(=O)N3 (single isomer, unassigned) [Example 146a] |
| 5.46 | CO[C@H](C(=O)NC1(C(F)(F)F)C(=O)Nc2nc3cc(C)c(C)cc3n21)c1ccccc1 (single isomer, unassigned) [Example 147b] |
| 6.21 | Cc1cc2nc3n(c2cc1C)C(NC(=O)[C@@H](C)Oc1cccc(Cl)c1)(C(F)(F)F)C(=O)N3 (single isomer, unassigned) [Example 212a] |
| 5.34 | Cc1cc2nc3n(c2cc1C)C(NC(=O)[C@@H](C)Oc1cccc(Cl)c1)(C(F)(F)F)C(=O)N3 (single isomer, unassigned) [Example 212b] |
| 5.84 | Cc1cc2nc3n(c2cc1C)C(NC(=O)[C@H](C)OCC1CCCC1)(C(F)(F)F)C(=O)N3 (single isomer, unassigned) [Example 215a] |
| 5.58 | Cc1cc2nc3n(c2cc1C)C(NC(=O)[C@H](C)OCC1CCCC1)(C(F)(F)F)C(=O)N3 (single isomer, unassigned) [Example 215b] |
| 5.50 | Cc1cc2nc3n(c2cc1C)C(NC(=O)CCC1CCCC1)(C(F)(F)F)C(=O)N3 (single isomer, unassigned) [Example 218a, 3-cyclopentyl-N-[10,11-dimethyl-4-oxo-3-(trifluoromethyl)-2,5,7-triazatricyclo[6.4.0.0^2,6]dodeca-1(12),6,8,10-tetraen-3-yl]propanamide] |
| 6.14 | Cc1cc2nc3n(c2cc1C)C(NC(=O)CCC1CCCC1)(C(F)(F)F)C(=O)N3 (single isomer, unassigned) [Example 218b, 3-cyclopentyl-N-[10,11-dimethyl-4-oxo-3-(trifluoromethyl)-2,5,7-triazatricyclo[6.4.0.0^2,6]dodeca-1(12),6,8,10-tetraen-3-yl]propanamide] |
| 6.03 | O=C(CCC1CCCC1)NC1(C(F)(F)F)C(=O)Nc2nc3cc(Cl)c(Cl)cc3n21 (single isomer, unassigned) [Example 219a, 3-cyclopentyl-N-[10,11-dichloro-4-oxo-3-(trifluoromethyl)-2,5,7-triazatricyclo[6.4.0.0^2,6]dodeca-1(12),6,8,10-tetraen-3-yl]propanamide] |
| 6.64 | O=C(CCC1CCCC1)NC1(C(F)(F)F)C(=O)Nc2nc3cc(Cl)c(Cl)cc3n21 (single isomer, unassigned) [Example 219b, 3-cyclopentyl-N-[10,11-dichloro-4-oxo-3-(trifluoromethyl)-2,5,7-triazatricyclo[6.4.0.0^2,6]dodeca-1(12),6,8,10-tetraen-3-yl]propanamide] |
| 5.71 | COCCNc1cccc(C(=O)NC2(C(F)(F)F)C(=O)Nc3nc4cc(C)c(C)cc4n32)n1 (single isomer, unassigned) [Example 220a, N-[10,11-dimethyl-4-oxo-3-(trifluoromethyl)-2,5,7-triazatricyclo[6.4.0.0^2,6]dodeca-1(12),6,8,10-tetraen-3-yl]-6-[(2-methoxyethyl)amino]pyridine-2-carboxamide] |
| 5.40 | COCCNc1cccc(C(=O)NC2(C(F)(F)F)C(=O)Nc3nc4cc(C)c(C)cc4n32)n1 (single isomer, unassigned) [Example 220b, N-[10,11-dimethyl-4-oxo-3-(trifluoromethyl)-2,5,7-triazatricyclo[6.4.0.0^2,6]dodeca-1(12),6,8,10-tetraen-3-yl]-6-[(2-methoxyethyl)amino]pyridine-2-carboxamide] |
| 6.06 | CC(=O)c1cccc2c1nc1n2C(NC(=O)CCC2CCCC2)(C(F)(F)F)C(=O)N1 (single isomer, unassigned) [Example 224a, N-[9-acetyl-4-oxo-3-(trifluoromethyl)-2,5,7-triazatricyclo[6.4.0.0^2,6]dodeca-1(12),6,8,10-tetraen-3-yl]-3-cyclopentylpropanamide] |
| 5.00 | CC(=O)c1cccc2c1nc1n2C(NC(=O)CCC2CCCC2)(C(F)(F)F)C(=O)N1 (single isomer, unassigned) [Example 224b, N-[9-acetyl-4-oxo-3-(trifluoromethyl)-2,5,7-triazatricyclo[6.4.0.0^2,6]dodeca-1(12),6,8,10-tetraen-3-yl]-3-cyclopentylpropanamide] |
| 6.59 | COc1ccc(-c2cccc3c2nc2n3C(NC(=O)CCC3CCCC3)(C(F)(F)F)C(=O)N2)cc1 (single isomer, unassigned) [Example 230a, 3-cyclopentyl-N-[9-(4-methoxyphenyl)-4-oxo-3-(trifluoromethyl)-2,5,7-triazatricyclo[6.4.0.0^2,6]dodeca-1(12),6,8,10-tetraen-3-yl]propanamide] |
| 5.54 | COc1ccc(-c2cccc3c2nc2n3C(NC(=O)CCC3CCCC3)(C(F)(F)F)C(=O)N2)cc1 (single isomer, unassigned) [Example 230b, 3-cyclopentyl-N-[9-(4-methoxyphenyl)-4-oxo-3-(trifluoromethyl)-2,5,7-triazatricyclo[6.4.0.0^2,6]dodeca-1(12),6,8,10-tetraen-3-yl]propanamide] |
